Assay results: paper PMC3894558, “Chemical signatures and new drug targets for gametocytocidal drug development” (Scientific Reports, 2014)
Where two headings read alike, the source gives them in different places.

System: P. falciparum 3D7 gametocytes
Assay: alamarBlue gametocyte viability assay, strain 3D7
Format: cell-based, Plasmodium falciparum
Conditions: Malaria Box; for Max Resp: DMSO set at 0%, 100 nM epoxomicin set at -100%; for Curve Class / IC50: stages III-V 3D7 gametocytes; for IC50: 11 concentrations, 1:3 dilution; call rule not given here

SMILES | IC50 | IC50 (read-out: IC50) [µM] | Max Resp [%] | Curve Class
O=C(Nc1ccc(Br)cc1)Nc1cccc(Cl)c1 [MMV001318] | Inactive |  | -20 | 4
CC1CC(C)CN(C(=O)c2ccc(Cl)cc2Cl)C1 (stereo not drawn) [MMV001344] | Inactive |  | -13 | 4
CCN(CC)CCNc1ccnc2cc(Cl)ccc12 [MMV006087] |  | 0.372 | -66 | -1.2
CN1CCN(c2ccc(Nc3c4ccccc4nc4ccccc34)cc2)CC1 [MMV006172] |  | 1.48 | -98 | -1.1
Cc1cc(NCCN2CCCCC2)c2ccc3ccccc3c2n1 [MMV006203] |  | 8.33 | -94 | -1.1
CN(C)c1ccc(C=Cc2nc(=O)c3ccccc3o2)cc1 [MMV006309] | Inactive |  | 2 | 4
Cc1cc(Nc2cccc(F)c2)nc(NCc2ccccc2)n1 [MMV006319] |  | 29.6 | -60 | -2.2
COc1cc(OC)c(N(C)C(=O)c2cc3c(s2)-c2ccccc2S(=O)(=O)C3)cc1Cl [MMV006427] |  | 11.8 | -74 | -2.2
CCOc1ccc2nc(C)cc(Nc3ccc(Br)cc3)c2c1 [MMV006522] |  | 29.6 | -59 | -2.2
Cc1cc(C)c2c(c1)OCN(Cc1ccccc1Cl)C2 [MMV006558] |  | 0.935 | -44 | -1.2

More lines, main results first:

IC50 | IC50 (read-out: IC50) [µM] | SMILES | Max Resp [%] | Curve Class
 | 11.8 | c1ccc(CNc2nc(Nc3ccccc3)nc3ccccc23)cc1 [MMV006169] | -80 | -2.2
Inactive |  | O=C(NCc1ccco1)C1CCN(S(=O)(=O)c2ccc(Cl)cc2)CC1 [MMV006188] | 19 | 4
Inactive |  | CCOC(=O)c1cnc2c(C)cccc2c1Nc1ccc(C(C)=O)cc1 [MMV006250] | 3 | 4
Inactive |  | CCc1c(C)c(=N)c2ccccc2n1C.I [MMV006278] | -52 | -2.2
Inactive |  | O=C1c2ccccc2C2=Nc3ccccc3SC(c3cccc(F)c3)C12 (stereo not drawn) [MMV006389] | 8 | 4
 | 3.32 | Cc1cc(NC(=O)C2c3ccccc3C(=O)N(CC(C)C)C2c2cccs2)no1 (stereo not drawn) [MMV006429] | -82 | -1.1
 | 0.743 | CCCN(CCC)CC(O)COc1ccccc1C(=O)Nc1ccccc1 (stereo not drawn) [MMV006455] | -40 | -1.2
Inactive |  | CCOC(=O)c1ccc2[nH]c(-c3ccccc3)cc(=O)c2c1 [MMV006457] | 14 | 4
 | 16.6 | c1ccc2c(NCCc3c[nH]c4ccccc34)c3ccccc3nc2c1 [MMV006513] | -85 | -2.1
Inactive |  | Clc1ccc2[nH]c3c(NCCCN4CCOCC4)ncnc3c2c1 [MMV006587] | -49 | -2.2
